According to patent US8362018B2, “Substituted imidazo[1,2-a]pyrazine compounds useful for the treatment of viral infections” (Biofocus DPI, Ltd., priority 2007, dated 2013):

Columns and labels:
HCV replicon = assay: anti-viral assay (EC50), Table 13; assay type: cell-based; conditions: Hepatitis C virus, anti-viral assays
From the text: The ability of a compound to inhibit HCV replication can be measured in vitro or using animal models using models and assays well known to those of skill in the art (e.g. Pietschmann et al, Clin Liver Dis. 7(1)c23-43, 2003). In vitro techniques for measuring the ability of a compound to inhibit HCV replication involve using HCV or an HCV replicon. Because HCV is difficult to grow in culture, particular in vitro techniques employ an HCV replicon.
An HCV replicon is an RNA molecule able to autonomously replicate in a cultured cell, such as Huh7. The HCV replicon expresses the HCV derived components of the replication machinery and contains cis-elements required for replication in a cultured cell. […]

[1] = cytotoxicity measurement (CC50), Table 13; assay type: cell-based; conditions: human, Huh7 cells

## COc1ccc(-c2cnc3c(NCCc4ccncc4)nccn23)cc1OC [Compound 62]
HCV replicon
  EC50: 1 to 20 µM
[1]
  CC50: < 35 µM

## CN1CCN(c2ccc(-c3cnc4c(Nc5cccc(OC(F)(F)C(F)F)c5)nccn34)cn2)CC1 [Compound 63]
HCV replicon
  EC50: 1 to 20 µM
[1]
  CC50: < 35 µM

## COc1ccc(-c2cnc3c(Nc4ccc(N5CCOCC5)cc4)nccn23)cc1OC [Compound 64]
HCV replicon
  EC50: 1 to 20 µM
[1]
  CC50: < 35 µM

## NS(=O)(=O)c1ccc(CNc2nccn3c(-c4cccc(O)c4)cnc23)cc1 [Compound 65]
HCV replicon
  EC50: 1 to 20 µM
[1]
  CC50: < 35 µM

## COc1ccc(-c2cnc3c(NCc4cccs4)nccn23)cc1OC [Compound 66]
HCV replicon
  EC50: 1 to 20 µM
[1]
  CC50: < 35 µM

## NS(=O)(=O)c1ccc(CNc2nccn3c(-c4cccc(F)c4)cnc23)cc1 [Compound 67]
HCV replicon
  EC50: 1 to 20 µM
[1]
  CC50: < 35 µM

## COc1ccc(-c2cnc3c(NCc4ccco4)nccn23)cc1OC [Compound 68]
HCV replicon
  EC50: 1 to 20 µM
[1]
  CC50: < 35 µM

## CC(C)c1ccc(Nc2nccn3c(-c4ccc(O)cc4)cnc23)cc1 [Compound 69]
HCV replicon
  EC50: 1 to 20 µM
[1]
  CC50: < 35 µM

## CC(C)c1ccc(Nc2nccn3c(-c4cccc(NS(C)(=O)=O)c4)cnc23)cc1 [Compound 70]
HCV replicon
  EC50: 1 to 20 µM
[1]
  CC50: < 35 µM

## CS(=O)(=O)Nc1cccc(-c2cnc3c(NCc4ccc(S(N)(=O)=O)cc4)nccn23)c1 [Compound 71]
HCV replicon
  EC50: 1 to 20 µM
[1]
  CC50: < 35 µM

## CS(=O)(=O)Nc1cccc(-c2cnc3c(NCc4ccc5c(c4)OCO5)nccn23)c1 [Compound 73]
HCV replicon
  EC50: 1 to 20 µM
[1]
  CC50: < 35 µM

## NS(=O)(=O)c1ccc(CNc2nccn3c(-c4ccccc4)cnc23)cc1 [Compound 74]
HCV replicon
  EC50: 1 to 20 µM
[1]
  CC50: < 35 µM

## NS(=O)(=O)c1ccc(CNc2nccn3c(-c4cccc(CO)c4)cnc23)cc1 [Compound 75]
HCV replicon
  EC50: 1 to 20 µM
[1]
  CC50: < 35 µM

## Oc1cccc(-c2cnc3c(NCc4cccnc4)nccn23)c1 [Compound 76]
HCV replicon
  EC50: 1 to 20 µM
[1]
  CC50: < 35 µM

## CS(=O)(=O)Nc1cccc(-c2cnc3c(NCc4cccnc4)nccn23)c1 [Compound 77]
HCV replicon
  EC50: 1 to 20 µM
[1]
  CC50: < 35 µM

## COCCCNc1nccn2c(-c3ccc(OC)c(OC)c3)cnc12 [Compound 78]
HCV replicon
  EC50: 1 to 20 µM
[1]
  CC50: < 35 µM

## OCc1ccc(-c2cnc3c(NCc4ccc(F)cc4)nccn23)cc1 [Compound 79]
HCV replicon
  EC50: 1 to 20 µM
[1]
  CC50: < 35 µM

## Oc1cccc(-c2cnc3c(NCc4cccs4)nccn23)c1 [Compound 80]
HCV replicon
  EC50: 1 to 20 µM
[1]
  CC50: < 35 µM

## OCc1ccc(-c2cnc3c(NCc4ccc5c(c4)OCO5)nccn23)cc1 [Compound 81]
HCV replicon
  EC50: 1 to 20 µM
[1]
  CC50: < 35 µM

## Oc1ccc(Nc2nccn3c(-c4cccc(F)c4)cnc23)cc1 [Compound 82]
HCV replicon
  EC50: 1 to 20 µM
[1]
  CC50: < 35 µM

## COc1ccc(CNc2nccn3c(-c4cccc(NS(C)(=O)=O)c4)cnc23)cc1 [Compound 83]
HCV replicon
  EC50: 1 to 20 µM
[1]
  CC50: < 35 µM

## CC(=O)c1cccc(-c2cnc3c(NCCc4cccnc4)nccn23)c1 [Compound 84]
HCV replicon
  EC50: 1 to 20 µM
[1]
  CC50: < 35 µM

## Oc1cccc(-c2cnc3c(NCCc4cccnc4)nccn23)c1 [Compound 85]
HCV replicon
  EC50: 1 to 20 µM
[1]
  CC50: < 35 µM

## COc1ccccc1-c1cnc2c(NCc3ccc(S(N)(=O)=O)cc3)nccn12 [Compound 86]
HCV replicon
  EC50: 1 to 20 µM
[1]
  CC50: < 35 µM

## CC(=O)Nc1cccc(-c2cnc3c(NCc4ccc(S(N)(=O)=O)cc4)nccn23)c1 [Compound 87]
HCV replicon
  EC50: 1 to 20 µM
[1]
  CC50: < 35 µM

## Cc1cc(-c2cnc3c(NCc4ccc(S(N)(=O)=O)cc4)nccn23)ccc1O [Compound 88, 4-{[3-(4-Hydroxy-3-methyl-phenyl)-imidazo[1,2-a]pyrazin-8-ylamino]-methyl}-benzenesulfonamide]
HCV replicon
  EC50: < 1 µM
[1]
  CC50: > 35 µM

## NS(=O)(=O)c1ccc(CNc2nccn3c(-c4ccc(O)c(O)c4)cnc23)cc1 [Compound 89]
HCV replicon
  EC50: > 20 µM
[1]
  CC50: > 35 µM

## NS(=O)(=O)c1ccc(CNc2nccn3c(-c4ccc(O)cc4F)cnc23)cc1 [Compound 91, 4-{[3-(2-Fluoro-4-hydroxy-phenyl)-imidazo[1,2-a]pyrazin-8-ylamino]-methyl}-benzenesulfonamide]
HCV replicon
  EC50: < 1 µM
[1]
  CC50: > 35 µM

## COc1ccc(-c2cnc3c(NCc4ccc(C(=O)O)cc4)nccn23)cc1OC [Compound 92, 4-{[3-(3,4-Dimethoxy-phenyl)-imidazo[1,2-a]pyrazin-8-ylamino]-methyl}-benzoic acid]
HCV replicon
  EC50: 1 to 20 µM
[1]
  CC50: > 35 µM

## COc1ccc(-c2cnc3c(NCc4ccc(CO)cc4)nccn23)cc1OC [Compound 93, (4-{[3-(3,4-Dimethoxy-phenyl)-imidazol[1,2-a]pyrazin-8-ylamino]-methyl}-phenyl)-methanol]
HCV replicon
  EC50: 1 to 20 µM
[1]
  CC50: > 35 µM

## NC(=O)c1cc(-c2cnc3c(NCc4ccc(S(N)(=O)=O)cc4)nccn23)ccc1O [Compound 94, 2-Hydroxy-5-[8-(4-sulfamoyl-benzylamino)-imidazo[1,2-a]pyrazin-3-yl]-benzamide]
HCV replicon
  EC50: 1 to 20 µM
[1]
  CC50: > 35 µM

## Oc1ccc(-c2cnc3c(Nc4ccccc4)nccn23)cc1 [Compound 96]
HCV replicon
  EC50: > 20 µM
[1]
  CC50: > 35 µM

## COc1ccc(-c2cnc3c(NCc4ccc(Cl)cc4)nccn23)cc1OC [Compound 97]
HCV replicon
  EC50: 1 to 20 µM
[1]
  CC50: < 35 µM

## CC(C)(C)c1ccc(CNc2nccn3c(-c4ccc(O)cc4)cnc23)cc1 [Compound 98]
HCV replicon
  EC50: 1 to 20 µM
[1]
  CC50: < 35 µM

## Oc1ccc(-c2cnc3c(NCc4cccc(Cl)c4)nccn23)cc1 [Compound 99]
HCV replicon
  EC50: 1 to 20 µM
[1]
  CC50: < 35 µM

## CNS(=O)(=O)c1ccc(CNc2nccn3c(-c4ccc(OC)cc4)cnc23)cc1 [Compound 100]
HCV replicon
  EC50: 1 to 20 µM
[1]
  CC50: > 35 µM

## CCNS(=O)(=O)c1ccc(CNc2nccn3c(-c4ccc(OC)cc4)cnc23)cc1 [Compound 101]
HCV replicon
  EC50: 1 to 20 µM
[1]
  CC50: > 35 µM

## CCNS(=O)(=O)c1ccc(CNc2nccn3c(-c4ccc(O)cc4)cnc23)cc1 [Compound 102]
HCV replicon
  EC50: 1 to 20 µM
[1]
  CC50: > 35 µM

## CNS(=O)(=O)c1ccc(CNc2nccn3c(-c4ccc(O)cc4)cnc23)cc1 [Compound 103]
HCV replicon
  EC50: 1 to 20 µM
[1]
  CC50: > 35 µM

## Cc1nc2c(NCc3ccc(S(N)(=O)=O)cc3)nccn2c1-c1ccc(O)cc1 [Compound 104, 4-{[3-(4-Hydroxy-phenyl)-2-methyl-imidazo[1,2-a]pyrazin-8-ylamino]-methyl}-benzenesulfonamide]
HCV replicon
  EC50: 1 to 20 µM
[1]
  CC50: > 35 µM

## COc1cc(-c2c(C)nc3c(NCc4ccc(S(N)(=O)=O)cc4)nccn23)ccc1O [Compound 105]
HCV replicon
  EC50: < 1 µM
[1]
  CC50: > 35 µM

## Cc1nc2c(NCc3ccc(S(N)(=O)=O)cc3)nccn2c1-c1ccc(O)c([N+](=O)[O-])c1 [Compound 107]
HCV replicon
  EC50: 1 to 20 µM
[1]
  CC50: > 35 µM

## Cc1cnc(NCc2ccc(S(N)(=O)=O)cc2)c2ncc(-c3ccc(O)cc3)n12 [Compound 108, 4-{[3-(4-Hydroxy-phenyl)-5-methyl-imidazo[1,2-a]pyrazin-8-ylamino]-methyl}-benzenesulfonamide]
HCV replicon
  EC50: < 1 µM
[1]
  CC50: < 35 µM

## COc1cc(-c2cnc3c(NCc4ccc(S(N)(=O)=O)cc4)ncc(C)n23)ccc1O [Compound 109]
HCV replicon
  EC50: < 1 µM
[1]
  CC50: < 35 µM

## Cc1cn2c(-c3ccc(O)cc3)cnc2c(NCc2ccc(S(N)(=O)=O)cc2)n1 [Compound 110, 4-{[3-(4-Hydroxy-phenyl)-6-methyl-imidazo[1,2-a]pyrazin-8-ylamino]-methyl}-benzenesulfonamide]
HCV replicon
  EC50: < 1 µM
[1]
  CC50: < 35 µM

## Cc1cn2c(-c3ccc(O)c(F)c3)cnc2c(NCc2ccc(S(N)(=O)=O)cc2)n1 [Compound 111]
HCV replicon
  EC50: < 1 µM
[1]
  CC50: > 35 µM

## COc1cc(-c2cnc3c(NCc4ccc(S(N)(=O)=O)cc4)nc(C)cn23)ccc1O [Compound 112]
HCV replicon
  EC50: < 1 µM
[1]
  CC50: < 35 µM

## NS(=O)(=O)c1ccc(CNc2nc(Br)cn3c(Br)cnc23)cc1 [Compound 113, 4-[(3,6-Dibromo-imidazo[1,2-a]pyrazin-8-ylamino)-methyl]-benzenesulfonamide]
HCV replicon
  EC50: > 20 µM
[1]
  CC50: > 35 µM

## NS(=O)(=O)c1ccc(CNc2nc(-c3ccc(O)cc3)cn3c(-c4ccc(O)cc4)cnc23)cc1 [Compound 114, 4-{[3,6-Bis-(4-hydroxy-phenyl)-imidazo[1,2-a]pyrazin-8-ylamino]-methyl}-benzenesulfonamide]
HCV replicon
  EC50: < 1 µM
[1]
  CC50: < 35 µM
